Consider 4 molecules from patent US12643918B2, “Thiadiazolone derivatives and their use as AMPK agonists for the treatment of diabetes and related disorders” (Betagenon AB, priority 2020, dated 2026).

In brackets after ≈: the same amount, converted by molar mass. Entries after “also recorded” stand apart in the source; their conditions may differ. Read-outs that look alike come from different tables or passages of the source.

A short description of series [1]: Stability of compounds in USP/phosphate buffer pH 7.40. It is filed as physicochemical. To be noted: for % remaining compared to 0.0 min: Phosphate Buffer pH 7.40, 37° C., 5 μM; for Stability compared to Compound 1 (in words): mildly basic solutions (pH 7.4). The method, then:
5 μM solutions of Compounds 1, 3 and 5 in USP buffer (pH: 7.40) were prepared with 5 mM DMSO stock solutions.

The next series concerns AMPK. The series is described as follows: Activation of AMPK: Western blot of p-T172 AMPK in INS-1E insulinoma cells. The format is cell-based. The note with it: for ratio between p-T172 AMPK and non-phosphorylated AMPK: INS-1E cells, control = 1.00; for Phosphorylation of AMPK (T172) / AMPK activation (in words): cultured INS-1E cells, Western blot. The method, then:
INS-1E cells were cultivated as described in Steneberg et al., JCI Insight. 2018; 3(12):e99114. https://doi.org/10.1172/jci.insight.99114, using 5% instead of 10% fetal bovine serum when plated for treatment.
Compound 3 was dissolved at 10 mM in DMSO and frozen at −20° C.
Compound 5 was dissolved at 10 mM in a 50:50 water/DMSO mixture, incubated for 15 minutes at room temperature in ultrasonic bath (VWR ultrasonic cleaner), and stored at room temperature.
The INS-1E cells were treated in serum free medium with increasing doses of Compounds 3 and 5 for 4 and 16 hours, respectively, in accordance with the methods described in Steneberg et al., JCI Insight. 2018; 3(12):e99114. https://doi.org/10.1172/jci.insight.99114.
Western blot analysis of the INS-1E cells was performed as described in Steneberg et. al., JCI Insight. 2018; 3(12):e99114. https://doi.org/10.1172/jci.insight.99114. The cell lysates were passed through a 30-gauge needle, ˜8-times and centrifuged for 10 min at +4° C. at 14000 rpm. Quantified values for AMPKα, and phosphorylated-T172 AMPKα, were normalized toward the quantified values for β-Actin.
In general terms: In western blotting, separated proteins are transferred to a membrane and probed.

Series [2] can be described thus: Single dose oral pharmacokinetic study of Compounds 1 and 3 in Sprague Dawley rats. It is filed as in vivo. The method, then:
10.0 mL of 2% w/v methyl cellulose solution in phosphate buffer (pH 7.5) was added to a 100 mL conical flask along with 1 g of 2 mm glass beads. The solution was vigorously stirred on a magnetic stirrer. 100 mg of Compound 1 was slowly added to the solution, and the solution was vigorously stirred for approximately 1 h. The pH of the formulation was measured to be 7.49. Each formulation was freshly prepared prior to administration to the animals. The final concentration of Compound 1 in of the formulation was 10 mg/mL. The formulation was administered at 5 mL/kg body weight.
10.0 mL of 2% w/v methyl cellulose solution in phosphate buffer (pH 7.5) was added to a 100 mL of conical flask together with 1 g of 2 mm glass beads. The solution was vigorously stirred on a magnetic stirrer. 134 mg of Compound 3 was slowly added to the solution, and the solution was vigorously stirred for approximately 1 h. The pH of the formulation was measured to be 7.44. Each formulation was freshly prepared prior to administration to the animals. The final concentration of Compound 3 in the formulation was 13.4 mg/mL, which is equivalent to 10 mg/mL of Compound 1. The formulation was administered at 5 mL/kg body weight.
The doses of 50 mg/kg and 67 mg/kg b.w. for Compound 1 and Compound 3, respectively, were selected for comparison of equimolar doses.
Adult healthy male Sprague Dawley rats aged 9 to 11 weeks were used for experimentation after a minimum three days of acclimatisation. Fed state animals were administered the formulation of Compound 1 or Compound 3 orally via gavage at a dose of 50 mg/kg or 67 mg/kg body weight, respectively.
Under mild isoflurane anesthesia, blood specimens were collected by retro-orbital puncture method using capillary tubes into pre-labeled tubes containing anticoagulant (K2EDTA: 2 mg/mL blood) during the next 72 hours post-dosing, as detailed in Table 6. For blood sampling at multiple time points, the right and left eyes were used alternatively. Collected blood specimens were centrifuged at 6000 rpm, 4° C. for 10 minutes and the plasma samples were separated and stored at −80° C. until analysis.

The nature of series [3]: Solubility of compounds at different pH. To be noted: for solubility at 2 h / solubility at 20 h: 30 °C, thermodynamic from solid, read-out: Absolute Solubility; for solubility at 2 h: 2 hours incubation; for solubility at 20 h: 20 hours incubation. The format is physicochemical. The method, then: Approximately 5 mg of each test compound (Compounds 1 and 5) was weighed in duplicate, and each weighed sample was transferred to a separate centrifuge tube containing 5 mL of the respective buffer. All the tubes were tightly stoppered and agitated at a constant rate at 30±1° C. using an orbital shaker.
[…] 50 μL of the buffer solution from each removed tube was transferred into a 10 mL tube and made up to the mark with diluent. Then 2.5 mL of the supernatant of each tube was transferred into a 50 mL tube and made up to […].
The nominal concentration of the solution in each 50 mL tube was 5 μg/mL.
Linearity solutions of 40 ng/mL to 10000 ng/mL were plotted.

For series [4] the following is noted: mice, Das et al. Reg Anesth Pain Med 2019, cited from earlier work.
The mark [5] stands for this setting: pH 9.2, aqueous buffer, Alkaline Borate Buffer, pH 9.20.
The mark [6] stands for this setting: plasma Compound 1 after oral Compound 1, 50 mg/kg b.w., fed male rats.
Where [7] appears, read: pH 4.5, aqueous buffer, Acetate Buffer, pH 4.50.
Where [8] appears, read: pH 7.4, aqueous buffer, Phosphate Buffer, pH 7.40.

As to `O=C(O)CCC(=O)OCn1c(=NC(=O)c2ccc(Cl)cc2)sn(Cc2ccc(Cl)cc2)c1=O` (stereo in doubt) [Compound 3, 4-({(5Z)-5-[(4-chlorobenzoyl)imino]-2-[(4-chlorophenyl)methyl]-3-oxo-1,2,4-thiadiazolidin-4-yl}methoxy)-4-oxobutanoic acid], the “% remaining compared to 0.0 min” value in series [1] (0.0 min) came to 100.00%; in series [1] (15 min), 86.96%; in series [1] (30 min), 93.61%; in series [1] (60 min), 88.74%; in series [1] (120 min) it was 75.40%. Further, in series [1], the “Stability compared to Compound 1 (in words)” value is given as “comparable stability to Compound 1”. Besides, the “ratio between p-T172 AMPK and non-phosphorylated AMPK” value is given as 1.62 with AMPK (2.5 μM, 4 h, 0.1% DMSO); 1.88 with AMPK (5 μM, 4 h, 0.1% DMSO); 2.95 in the series with AMPK (10 μM, 4 h, 0.1% DMSO). The “Phosphorylation of AMPK (T172) / AMPK activation (in words)” value in the series on AMPK is “increase phosphorylation of AMPK in a dose-dependent manner; also recorded: increase phosphorylated-T172 AMPK in a dose-dependent manner”. Also, in series [2] (equimolar oral doses, rats), the “Increase in systemic exposure of Compound 1 after oral Compound 3 compared to administration of Compound 1” value is reported as “two-fold”.

With `O=C(Nc1nc(=O)n(Cc2ccc(Cl)cc2)s1)c1ccc(Cl)cc1` [Compound 1, 4-chloro-N-[2-[(4-chlorophenyl)methyl]-3-oxo-1,2,4-thiadiazol-5-yl]benzamide], in series [3] (setting [5]), the solubility at 2 h was found to be 29 µg/mL (≈ 76.3 µM) and the solubility at 20 h was determined as 44 µg/mL (≈ 116 µM). Moreover, the “% remaining compared to 0.0 min” value in series [1] (0.0 min) is 100.00%. Also, the “% remaining compared to 0.0 min” value in series [1] (15 min) worked out at 97.62%. In series [1] (30 min), the “% remaining compared to 0.0 min” value is 101.31%. In series [1] (60 min), the “% remaining compared to 0.0 min” value amounted to 99.41%. For the same molecule, in series [1] (120 min), the “% remaining compared to 0.0 min” value was 106.18%. In series [2] (male, Sprague Dawley, rat, plasma, 50 mg/kg b.w., after oral Compound 1, 50 mg/kg, 1.00 h), this molecule had a concentration at 1 h of 4240 ng/mL. This molecule returned a concentration at 2 h in series [2] (male, Sprague Dawley, rat, plasma, 50 mg/kg b.w., after oral Compound 1, 50 mg/kg, 2.00 h) of 7990 ng/mL. Also, the concentration at 4 h in series [2] (male, Sprague Dawley, rat, plasma, 50 mg/kg b.w., after oral Compound 1, 50 mg/kg, 4.00 h) worked out at 14000 ng/mL. The concentration at 6 h in series [2] (male, Sprague Dawley, rat, plasma, 50 mg/kg b.w., after oral Compound 1, 50 mg/kg, 6.00 h) was 17000 ng/mL. For the same molecule, the concentration at 8 h in series [2] (male, Sprague Dawley, rat, plasma, 50 mg/kg b.w., after oral Compound 1, 50 mg/kg, 8.00 h) was found to be 19300 ng/mL. Further, the concentration at 24 h in series [2] (male, Sprague Dawley, rat, plasma, 50 mg/kg b.w., after oral Compound 1, 50 mg/kg, 24.00 h) was determined as 9440 ng/mL. This molecule registered a concentration at 0 h in series [2] (male, Sprague Dawley, rat, plasma, after oral Compound 1, 50 mg/kg, 0.00 h) of 0 ng/mL. Further, the concentration at 0.25 h in series [2] (male, Sprague Dawley, rat, plasma, after oral Compound 1, 50 mg/kg, 0.25 h) amounted to 620 ng/mL. Also, in series [2] (male, Sprague Dawley, rat, plasma, after oral Compound 1, 50 mg/kg, 0.50 h), the concentration at 0.5 h came to 1980 ng/mL. Besides, the concentration at 48 h in series [2] (male, Sprague Dawley, rat, plasma, after oral Compound 1, 50 mg/kg, 48.00 h) amounted to 720 ng/mL. Moreover, the concentration at 72 h in series [2] (male, Sprague Dawley, rat, plasma, after oral Compound 1, 50 mg/kg, 72.00 h) came out at 0 ng/mL. In series [2] (setting [6]), this molecule returned an AUCextrap of 2.33 ± 1.74%, an AUCinf of 458.31 ± 154.77 µg·h/mL, an AUClast of 449.40 ± 157.75 µg·h/mL and a Cmax of 19600 ± 5540 ng/mL. Besides, in series [2] (setting [6]), the MRTlast is recorded as 14.78 ± 0.68 h, the T1/2 is listed as 8.42 ± 1.47 h and the Tmax was determined as 7.33 ± 1.16 h. Moreover, the “Effect on pain (in words)” value in series [4] (listed as compound of formula II) is on record as “effective at treating pain; also recorded: capable of treating pain”.

`O=C(/N=c1\sn(Cc2ccc(Cl)cc2)c(=O)n1COP(=O)([O-])[O-])c1ccc(Cl)cc1.[Na+].[Na+]` [Compound 5, disodium {(5Z)-5-[(4-chlorobenzoyl)imino]-2-[(4-chlorophenyl)methyl]-3-oxo-1,2,4-thiadiazolidin-4-yl}methyl phosphate]: the solubility at 2 h in series [3] (setting [7]) was found to be 15 µg/mL; in series [3] (setting [8]), 119 µg/mL; in series [3] (setting [5]), 720 µg/mL; in series [3] (Ultrapure water) it was 419 µg/mL. Moreover, the solubility at 20 h was 15 µg/mL in series [3] (setting [7]), 98 µg/mL in series [3] (setting [8]), 1240 µg/mL in series [3] (setting [5]) and 36 µg/mL in series [3] (Ultrapure water). For the same molecule, the “Solubility relative to Compound 1” value in series [3] (basic solution) is on record as “up to 30 times”. The “Solubility compared to Compound 1 (in words)” value in series [3] (basic solutions (pH>7) and mildly acidic conditions) is listed as “higher solubility compared to Compound 1”. Further, the “% remaining compared to 0.0 min” value in series [1] (0.0 min) is 100.00%; in series [1] (15 min), 103.92%; in series [1] (30 min) it was 107.58%; in series [1] (60 min) it was 107.88%; in series [1] (120 min), 97.30%. Further, the “Stability compared to Compound 1 (in words)” value in series [1] is “comparable stability to Compound 1”. The “ratio between p-T172 AMPK and non-phosphorylated AMPK” value with AMPK (2.5 μM, 16 h, 0.05% DMSO) is 1.29; in the series with AMPK (5 μM, 16 h, 0.05% DMSO), 1.62; in the series with AMPK (10 μM, 16 h, 0.05% DMSO) it was 3.21. Besides, in the series on AMPK (phosphate), the “Phosphorylation of AMPK (T172) / AMPK activation (in words)” value is “increase phosphorylation of AMPK in a dose-dependent manner; also recorded: increase phosphorylated-T172 AMPK in a dose-dependent manner”.

As for `CN(C)C(=N)N=C(N)N` [metformin], in series [4], the “Effect on pain (in words)” value was “effective at treating pain”.

For orientation: solubility means the concentration that dissolves in the medium under given conditions. The term Cmax denotes the maximum level reached in the sampled fluid or tissue. As a reminder, the Tmax is the time at which the peak concentration occurs.
